Source: patent publication US9333234B2, “Combination of somatostatin-analogs with 11beta-hydroxylase inhibitors” (Novartis AG, priority 2012, dated 2016)
Like-named read-outs stand apart in the source and are kept apart here. Numbered stars: 1 amine (or outer) side, 2 acyl side, 3 side chain; on linkers, the order of the positions; unused ones are H or OH. Square brackets hold non-standard residues; d marks the D form. Side chains are listed from the residue outwards. Peptide text beside a SMILES is read from it. * marks the point of attachment. Ethylenediamine = C(CN[*:2])N[*:1]; Hyp = O=C(O)[C@@H]1C[C@@H](O)CN1; Phg = N[C@H](C(=O)O)c1ccccc1; CO = O=C([*:1])[*:2]; Bn = c1ccc(C*)cc1

Tests used:
Wistar Hannover rats = assay type: in vivo; conditions: for Serum corticosterone, Change from Control (%): Female rats; for Effects on serum corticosterone (PD marker), in words: compared to control
Description: Another group of rats (10/sex) received daily doses of Ultrapure water, by oral gavage, and the Acetate buffered solution pH 4.5 for injection USP, by subcutaneous injection, and served as controls.
Study activities included clinical examinations, involving twice daily exams for mortality and signs of ill health or reaction to treatment, daily pre-dose and 1-hour post dose cage-side observations, weekly detailed examination, body weights and food consumption, two ophthalmic examinations (pretreatment and week 13), clinical pathology (hematology, coagulation and clinical biochemistry, urinalysis) and immunology at the end of dosing (Adrenocorticotropic hormone, Corticosterone, Growth hormone, Insulin-like growth factor and urinalysis for Corticosterone). […] Post mortem evaluation included macroscopic observations, organ weight assessments (absolute and relative to body) and microscopic examinations.

[1] = tested on: Cushing's disease patients; conditions: Colao et al. N Engl J Med 2012; 366:32-42; cited from earlier work
[2] = Solubility profile, excess solids equilibrated in each solvent; assay type: physicochemical
Description: Excess solids were equilibrated in each solvent for over 24 hours at 25° C.±0.1. Concentration in supernatant was measured by gravimetry for organic solvents and by HPLC from aqueous solvents and propylene glycol.

[3] = Solubility and stability in water at 0.1% target concentration, 50° C.; assay type: physicochemical; conditions: for stability / behaviour in water: 2 days at 50° C.
[4] = tested on: patients with Cushing's disease
Description: Dose escalation was planned every 2 weeks to 5, 10, 20 and 50 mg bid until UFC normalized, in which case the dose was maintained until day 70, when treatment stopped. Dose reduction for tolerability was permitted. UFC was assessed on the penultimate day of each 2-week period. Patients were monitored until day 84. The primary endpoint was UFC≦ULN or a ≧50% decrease from baseline at day 70 using the mean of 3 UFC samples collected during the week before day 70.

[5] = Hygroscopicity, sorption/desorption isotherms (VTI 100 humidity microbalance); assay type: physicochemical; conditions: 25° C.
Description: Sorption/desorption isotherms were measured using the VTI 100 humidity microbalance (VTI Corporation, Hialeah, Fla., USA). Measurements were carried out at 25° C. Samples were dried under N2 flow at 25° C.

[6] = Female rats (n = 10), dose —/0.3 (SOM230 0.3 mg/kg/day alone)
[7] = Male rats (n = 10), dose —/0.3 (SOM230 0.3 mg/kg/day alone)
[8] = Female rats (n = 10), dose 20/— (COMPOUND A 20 mg/kg/day alone)
[9] = Male rats (n = 10), dose 20/— (COMPOUND A 20 mg/kg/day alone)
[10] = of the 9 patients who completed the active treatment phase
[11] = patients with Cushing's disease

In the case of `NCCCC[C@@H]1NC(=O)[C@@H](Cc2c[nH]c3ccccc23)NC(=O)[C@H](c2ccccc2)NC(=O)[C@@H]2C[C@@H](OC(=O)NCCN)CN2C(=O)[C@H](Cc2ccccc2)NC(=O)[C@H](Cc2ccc(OCc3ccccc3)cc2)NC1=O` [SOM230, cyclo[{4-(NH2—C2H4—NH—CO—O-)Pro}-Phg-DTrp-Lys-Tyr(4-Bzl)-Phe], reference compound] (cyclo([Hyp]([CO-Ethylenediamine])[Phg][dW]KY(Bn)F)), the “Absolute adrenal weights” value (Wistar Hannover rats; [6]) is reported as 0.04585 g, the “Mean serum corticosterone level” value (Wistar Hannover rats; [6]) is reported as 190.56 and the “Relative adrenal weight (% of body weight)” value (Wistar Hannover rats; [6]) is reported as 0.02432 % of body weight. For the same compound, the “Serum corticosterone, Change from Control (%)” value (Wistar Hannover rats; dose —/0.3 (SOM230 0.3 mg/kg/day alone)) was −27%, the “Absolute adrenal weights” value (Wistar Hannover rats; [7]) was 0.03615 g and the “Mean serum corticosterone level” value (Wistar Hannover rats; [7]) was 233.68. For the same compound, the “Relative adrenal weight (% of body weight)” value (Wistar Hannover rats; [7]) was 0.01326 % of body weight, the “Effects on serum corticosterone (PD marker), in words” value (Wistar Hannover rats; rats) was “decreases in serum corticosterone in females only” and the “cortisol levels in Cushing's disease patients” value [1] was “significant decrease of cortisol levels”.
With `N#Cc1ccc([C@H]2CCc3cncn32)c(F)c1` [Compound A, (R)-4-(6,7-Dihydro-5H-pyrrolo[1,2-c]imidazol-5-yl)-3-fluoro-benzonitrile] the “Absolute adrenal weights” value (Wistar Hannover rats; [8]) was 0.07002 g, the “Mean serum corticosterone level” value (Wistar Hannover rats; [8]) was 166.76 and the “Serum corticosterone, Change from Control (%)” value (Wistar Hannover rats; dose 20/— (COMPOUND A 20 mg/kg/day alone)) was −36%. The “Absolute adrenal weights” value (Wistar Hannover rats; [9]) was 0.04969 g, the “Mean serum corticosterone level” value (Wistar Hannover rats; [9]) was 221.83 and the adrenalcortical hypertrophy (Wistar Hannover rats; female rats) was “produced adrenalcortical hypertrophy”. The “Effects on serum corticosterone (PD marker), in words” value (Wistar Hannover rats; rats) was “decreases in serum corticosterone in females only”, the “Effects on adrenal gland organ weights, in words” value (Wistar Hannover rats; rats, more pronounced in females) was “increased adrenal gland organ weights” and the Solubility ([2]; Ethanol, over 24 hours at 25° C.) was over 50 mg/mL. The Solubility ([2]; Ethyl Acetate, over 24 hours at 25° C.) was over 50 mg/mL, the Solubility ([2]; organic solvent or mixture, thermodynamic from solid, Acetone, over 24 hours at 25° C., read-out: Solubility) was over 50 mg/mL and the Solubility ([2]; simulated gastric fluid, thermodynamic from solid, pH 1, over 24 hours at 25° C., read-out: Solubility) was over 50 mg/mL. The “solubility in water at the 0.1% target concentration” value [3] was “largely insoluble”, the “stability / behaviour in water” value [3] was “converted from a free flowing solid into an oily material” and the “ACTH level doubled, share of patients” value ([4]; 10-week trial) was “half of the patients”. For the same compound, the “effect on urinary free cortisol (UFC)” value ([4]; 10-week trial) was “successfully reduced urinary free cortisol (UFC) in all patients”, the “adverse event fatigue (patients)” value ([4]; 12 patients enrolled) was 7/12 and the “adverse event headache (patients)” value ([4]; 12 patients enrolled) was 3/12. For the same compound, the “adverse event nausea (patients)” value ([4]; 12 patients enrolled) was 4/12, the “patients with ACTH levels >2× baseline” value ([4]; 12 patients enrolled) was “Five” and the “patients with study drug-related hypokalemia (K+<3.5 mmol/L)” value ([4]; 12 patients enrolled) was “Four”. For the same compound, the “mean SBP decrease from baseline” value ([4]; day 70) was 13.1 mmHg, the “patients with UFC >ULN after treatment discontinuation” value ([4]; measurements at day 84) was 6 patients and the “patients achieving primary endpoint (UFC≦ULN or ≧50% decrease from baseline at day 70)” value [4, 10] was 9 patients. For the same compound, the “patients with normal UFC levels on day 70” value [4, 10] was 8 patients, the “patients with normal UFC levels on at least one assessment during the study” value ([4]; oral, 2-50 mg bid dose escalation) was 11 of 11 and the efficacy conclusion [4, 11] was “demonstrated efficacy”. The “tolerability / safety profile” value [4, 11] was “satisfactory safety profile” and the “tolerability / safety profile” value ([4]; patients with Cushing's disease, listed as COMPOUND A) was “generally well tolerated”.
`N#Cc1ccc([C@H]2CCc3cncn32)c(F)c1.O=P(O)(O)O` [Phosphate salt, Phosphate Salt of 4-(R)-6,7-dihydro-5H-pyrrolo[1,2-c]imidazol-5-yl-3-fluoro-benzonitrile (Form A)] showed a Solubility ([2]; Water, over 24 hours at 25° C.) of over 50 mg/mL, a Solubility ([2]; pH 1, over 24 hours at 25° C.) of over 50 mg/mL and a Solubility ([2]; pH 6.8, over 24 hours at 25° C.) of over 50 mg/mL. For the same compound, the “solubility in water at the 0.1% target concentration” value [3] was “soluble”, the “stability / behaviour in water” value [3] was “stable” and the “hygroscopicity, water uptake” value ([5]; 5% RH) was 0%. For the same compound, the “hygroscopicity, water uptake” value ([5]; 75% relative humidity) was 0.9%.
